Assay [1] deals with human lung adenocarcinoma NCI-H441 cells. Briefly: In vitro inhibitory effect on the proliferation of NCI-H441 cells (3D CellTiter Glo, 5 days). To be noted: 120 h, 3D cell viability. In kind it is cell-based. How it is done: The human lung adenocarcinoma cell NCI-H441 used in the assay was purchased from ATCC. The complete culture medium required for cell culture was RPMI 1640 Medium (GIBCO Company), which was supplemented with 10% fetal bovine serum (GIBCO Company). Cells were cultured in a 37° C., 5% CO2 incubator. The reagents used in the assay included dimethyl sulfoxide (purchased from Sigma), a 3D Cell Viability assay kit (purchased from Promega), and the control substance TW-45 used in the assay was obtained homemade. The test substance was sealed and stored at 4° C.
Dimethyl sulfoxide was used as the solvent to fully dissolve the test substance and prepare a stock solution with a concentration of 1×10^−2 mol/L. The stock solution was stored at −20° C. A complete culture medium was used as the diluent, and the test substance was diluted to different concentrations in gradient for later use (the final test concentration was 10000, 3333, 1111, 370, 123, 41, 13.7, 4.5, 1.5, and 0.5 nM). Cells were cultured in a 37° C., 5% CO2 incubator for 5 days. Detection was made on the fifth day. 30 μL of reagent (Celltiter Glo Assay Kit-3D) was added to each well and the plate was shaken on a plate oscillator (protected from light) for 30 minutes. The plate was incubated at room temperature (protected from light) for 120 minutes. Chemiluminescence values were recorded with a Multiplate reader. […]

The target in a further assay is SHP2 (Homo sapiens (Human), UniProt Q06124). Briefly: Assay for the inhibitory effect on the SHP2 enzyme (DiFMUP substrate, fluorescence). The class given is biochemical. The conditions noted are these: SHP2 activated with SHP-2 activated peptide; DiFMUP 10 μM; read-out: Enzymatic Effect (IC50 on SHP2). On the procedure:
1× Assay buffer was prepared. A compound to be tested was diluted with DMSO solvent to a stock concentration of 10 mM. The compound to be tested was first diluted to an intermediate concentration of 1000 μM and then further diluted in a 3-fold gradient using DMSO. Therefore, the intermediate gradient dilution concentration of the compound to be tested was: 1000 μM, 3-fold dilution, 11 gradients. 100 nL of each concentration of the compound in the 384-well LDV echo plate was transferred to a new 384-well ELISA plate (assay plate) (corning, Cat #4514) by the Echo550 instrument. The final concentration of the compound to be tested was 10 μM, 3-fold dilution, 11 gradients in duplicate after 10 μL of the reaction reagent was added. The final DMSO concentration was 1%. For both negative and positive control wells, 100 nL DMSO would be transferred.
A mixed liquor of 2× working SHP2 reagent (0.4 nM) and 0.5 μM SHP-2 activated peptide (BPS bioscience #79319-2) was prepared with 1× enzyme buffer. After the above-mixed liquor was incubated at 25° C. for 60 minutes, 5 μL of activated SHP2 kinase solution was transferred with a pipettor to the compound wells and the Max control wells (Corning, #4514) of the plate. Then 5 μL of 1× kinase buffer was transferred to the Min control wells. The plate was centrifuged at 1000 rpm for 30 seconds, sealed, and incubated in a 25° C. constant-temperature incubator for 30 minutes. A substrate solution of DiFMUP (#D6567, Invitrogen™) was prepared with 1× kinase buffer, and its concentration should be 2 times as the final concentration of the assay (DiFMUP final concentration: 10 μM). 5 μL of the prepared substrate solution was transferred with an electric pipettor into each well of the ELISA plate to start the reaction. The plate was centrifuged at 1000 rpm for 30 seconds, sealed, and incubated in a 25° C. constant-temperature incubator for 60 minutes. Read the plate at the excitation/emission wavelength of 358/455 nm after the ELISA plate was placed on the Spark machine.
The RLU values were collected from Spark and the inhibition rate was calculated with the RLU values. Inhibition rate=(maximum value-sample RLU)/(maximum value-minimum value)*100. “Minimum value” was referred to the RLU of the enzyme-free control, and “maximum value” was referred to the RLU of the DMSO control. The data were fit by using the XLFit Excel module (version 5.4.0.8) to obtain IC50 values, and the results are shown in Table 1.

Sequence of SHP2 (Q06124 whole entry): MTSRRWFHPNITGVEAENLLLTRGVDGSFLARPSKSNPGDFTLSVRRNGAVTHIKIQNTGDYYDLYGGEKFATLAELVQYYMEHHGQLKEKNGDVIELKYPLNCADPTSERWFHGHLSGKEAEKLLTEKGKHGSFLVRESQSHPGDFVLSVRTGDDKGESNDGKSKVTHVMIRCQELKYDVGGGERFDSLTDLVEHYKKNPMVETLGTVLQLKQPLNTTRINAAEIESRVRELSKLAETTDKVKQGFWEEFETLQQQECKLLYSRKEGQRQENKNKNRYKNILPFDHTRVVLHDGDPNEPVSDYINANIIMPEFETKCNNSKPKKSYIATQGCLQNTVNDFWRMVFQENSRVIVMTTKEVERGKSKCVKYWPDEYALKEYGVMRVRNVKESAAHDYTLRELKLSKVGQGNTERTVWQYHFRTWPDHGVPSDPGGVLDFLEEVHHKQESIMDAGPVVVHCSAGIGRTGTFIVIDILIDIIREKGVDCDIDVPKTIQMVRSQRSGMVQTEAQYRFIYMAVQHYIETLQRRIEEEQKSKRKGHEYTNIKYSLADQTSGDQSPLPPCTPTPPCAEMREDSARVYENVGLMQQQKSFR

Turning to `CC(=O)c1nc(Sc2ccnc(N)c2Cl)c(N)nc1N1CCC2(CC1)Oc1ccccc1[C@H]2N` [Compound 62], the 50% inhibitory concentration (IC50) was 20 to 50 nM in assay [1] and ≤ 20 nM at SHP2.

(Values after US20240376119A1, “SPIRO COMPOUND AND USE THEREOF” (CSPC Zhongqi Pharmaceutical Technology (Shijiazhuang) Co., …, priority 2021, published 2024).)
